Assay [1] has as its target various enzymes (Homo sapiens, UniProt P29597). The settings on record: 1 uM.
Experimental: (§1) Ambit profiling from Eurofins (formerly Discoverx) was conducted in accordance with the manufacturer's instructions.
Assay [2] has as its target various enzymes (Homo sapiens, UniProt P08581, M1250T).
Experimental: as §1
Assay [3] has as its target various enzymes (Homo sapiens, UniProt P08581, Y1235D).
Experimental: as §1
Assay [4] deals with various enzymes (Homo sapiens, UniProt Q00526). The settings on record: CDK3; 1 uM.
Experimental: as §1
Assay [5] deals with T1, various enzymes (Homo sapiens, UniProt O14757).
T1 sequence (O14757 1-476): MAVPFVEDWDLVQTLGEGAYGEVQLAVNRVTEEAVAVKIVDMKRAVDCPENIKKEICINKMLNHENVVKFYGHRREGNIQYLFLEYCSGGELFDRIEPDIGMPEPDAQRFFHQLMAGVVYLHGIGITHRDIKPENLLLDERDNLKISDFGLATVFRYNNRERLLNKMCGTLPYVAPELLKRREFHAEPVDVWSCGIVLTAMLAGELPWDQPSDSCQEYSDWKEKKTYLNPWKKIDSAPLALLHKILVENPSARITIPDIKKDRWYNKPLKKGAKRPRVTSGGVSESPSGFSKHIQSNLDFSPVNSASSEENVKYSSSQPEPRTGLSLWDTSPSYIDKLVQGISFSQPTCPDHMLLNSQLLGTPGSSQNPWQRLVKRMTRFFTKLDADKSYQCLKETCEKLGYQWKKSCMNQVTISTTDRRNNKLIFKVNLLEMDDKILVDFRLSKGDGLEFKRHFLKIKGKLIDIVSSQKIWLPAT
The note with it: CHEK1; 1 uM.
Experimental: as §1

Assay [6] addresses various enzymes (Homo sapiens, UniProt P53779). The note with it: JNK3; 1 uM.
Experimental: as §1
The target of assay [7] is various enzymes (Homo sapiens, UniProt Q9Y6E0). The settings on record: MST3; 1 uM.
Experimental: as §1
For assay [8], the target named is various enzymes (Homo sapiens, UniProt P24941). The settings on record: CDK2; 1 uM.
Experimental: as §1
Assay [9] concerns the target various enzymes (Homo sapiens, UniProt Q9Y2K2). The settings on record: QSK; 1 uM.
Experimental: as §1
The target of assay [10] is various enzymes (Homo sapiens, UniProt P00533, L861Q).
Experimental: as §1
Assay [11] deals with various enzymes (Homo sapiens, UniProt Q9HCP0). The settings on record: CSNK1G1; 1 uM.
Experimental: as §1
In assay [12] the target is T2, various enzymes (Homo sapiens, UniProt O14733).
T2 sequence (O14733 1-419): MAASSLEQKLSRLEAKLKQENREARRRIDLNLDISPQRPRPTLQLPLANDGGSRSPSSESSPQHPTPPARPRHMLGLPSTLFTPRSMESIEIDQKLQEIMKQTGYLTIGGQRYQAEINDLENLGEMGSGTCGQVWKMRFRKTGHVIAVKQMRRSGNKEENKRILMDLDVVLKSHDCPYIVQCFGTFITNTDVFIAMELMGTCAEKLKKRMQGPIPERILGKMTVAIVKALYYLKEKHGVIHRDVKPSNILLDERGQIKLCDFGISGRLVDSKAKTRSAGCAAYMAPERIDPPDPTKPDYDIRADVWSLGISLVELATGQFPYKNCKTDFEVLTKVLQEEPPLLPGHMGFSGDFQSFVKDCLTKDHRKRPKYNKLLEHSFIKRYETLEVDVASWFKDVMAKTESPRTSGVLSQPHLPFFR
The settings on record: MKK7; 1 uM.
Experimental: as §1

Assay [13] concerns the target various enzymes (Homo sapiens, UniProt P57059). The note with it: SIK; 1 uM.
Experimental: as §1
Assay [14] deals with T3, various enzymes (Homo sapiens, UniProt P36888).
T3 sequence (P36888 1-993): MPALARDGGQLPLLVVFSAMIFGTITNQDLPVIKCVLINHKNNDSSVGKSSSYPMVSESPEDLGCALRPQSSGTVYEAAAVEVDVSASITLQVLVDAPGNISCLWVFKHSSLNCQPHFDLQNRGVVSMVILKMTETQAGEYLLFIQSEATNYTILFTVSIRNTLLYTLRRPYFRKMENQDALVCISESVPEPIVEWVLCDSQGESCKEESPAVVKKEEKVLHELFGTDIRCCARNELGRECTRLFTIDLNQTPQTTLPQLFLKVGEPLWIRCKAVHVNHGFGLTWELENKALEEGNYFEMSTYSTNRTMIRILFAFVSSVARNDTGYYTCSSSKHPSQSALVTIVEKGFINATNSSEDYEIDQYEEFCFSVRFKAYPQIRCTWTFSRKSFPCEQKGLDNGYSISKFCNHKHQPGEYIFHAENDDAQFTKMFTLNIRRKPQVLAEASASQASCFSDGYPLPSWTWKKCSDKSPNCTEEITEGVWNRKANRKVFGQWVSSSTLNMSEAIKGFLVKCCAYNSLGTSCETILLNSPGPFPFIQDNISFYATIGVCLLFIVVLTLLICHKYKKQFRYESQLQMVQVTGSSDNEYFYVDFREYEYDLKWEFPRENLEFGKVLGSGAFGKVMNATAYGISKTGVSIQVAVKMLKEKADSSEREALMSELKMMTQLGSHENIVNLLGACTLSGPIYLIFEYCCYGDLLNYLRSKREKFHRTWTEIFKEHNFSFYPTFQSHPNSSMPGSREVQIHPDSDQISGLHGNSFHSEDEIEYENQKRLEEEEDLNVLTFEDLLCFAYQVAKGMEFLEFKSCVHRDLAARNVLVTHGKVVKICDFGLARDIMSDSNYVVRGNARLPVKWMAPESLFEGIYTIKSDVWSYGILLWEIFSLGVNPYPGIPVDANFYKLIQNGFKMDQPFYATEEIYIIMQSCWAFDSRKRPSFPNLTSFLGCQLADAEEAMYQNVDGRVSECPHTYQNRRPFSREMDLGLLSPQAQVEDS
The note with it: FLT3(ITD); 1 uM.
Experimental: as §1

Assay [15] has as its target various enzymes (Homo sapiens, UniProt P00533, L858R/T790M).
Experimental: as §1
Assay [16] has as its target various enzymes (Homo sapiens, UniProt P45983). The note with it: JNK1; 1 uM.
Experimental: as §1
For assay [17], the target named is various enzymes (Homo sapiens, UniProt P00533, G719C).
Experimental: as §1

Read-outs that look alike come from different tables or passages of the source.

various enzymes (Homo sapiens, UniProt P29597), sequence (P29597 whole entry): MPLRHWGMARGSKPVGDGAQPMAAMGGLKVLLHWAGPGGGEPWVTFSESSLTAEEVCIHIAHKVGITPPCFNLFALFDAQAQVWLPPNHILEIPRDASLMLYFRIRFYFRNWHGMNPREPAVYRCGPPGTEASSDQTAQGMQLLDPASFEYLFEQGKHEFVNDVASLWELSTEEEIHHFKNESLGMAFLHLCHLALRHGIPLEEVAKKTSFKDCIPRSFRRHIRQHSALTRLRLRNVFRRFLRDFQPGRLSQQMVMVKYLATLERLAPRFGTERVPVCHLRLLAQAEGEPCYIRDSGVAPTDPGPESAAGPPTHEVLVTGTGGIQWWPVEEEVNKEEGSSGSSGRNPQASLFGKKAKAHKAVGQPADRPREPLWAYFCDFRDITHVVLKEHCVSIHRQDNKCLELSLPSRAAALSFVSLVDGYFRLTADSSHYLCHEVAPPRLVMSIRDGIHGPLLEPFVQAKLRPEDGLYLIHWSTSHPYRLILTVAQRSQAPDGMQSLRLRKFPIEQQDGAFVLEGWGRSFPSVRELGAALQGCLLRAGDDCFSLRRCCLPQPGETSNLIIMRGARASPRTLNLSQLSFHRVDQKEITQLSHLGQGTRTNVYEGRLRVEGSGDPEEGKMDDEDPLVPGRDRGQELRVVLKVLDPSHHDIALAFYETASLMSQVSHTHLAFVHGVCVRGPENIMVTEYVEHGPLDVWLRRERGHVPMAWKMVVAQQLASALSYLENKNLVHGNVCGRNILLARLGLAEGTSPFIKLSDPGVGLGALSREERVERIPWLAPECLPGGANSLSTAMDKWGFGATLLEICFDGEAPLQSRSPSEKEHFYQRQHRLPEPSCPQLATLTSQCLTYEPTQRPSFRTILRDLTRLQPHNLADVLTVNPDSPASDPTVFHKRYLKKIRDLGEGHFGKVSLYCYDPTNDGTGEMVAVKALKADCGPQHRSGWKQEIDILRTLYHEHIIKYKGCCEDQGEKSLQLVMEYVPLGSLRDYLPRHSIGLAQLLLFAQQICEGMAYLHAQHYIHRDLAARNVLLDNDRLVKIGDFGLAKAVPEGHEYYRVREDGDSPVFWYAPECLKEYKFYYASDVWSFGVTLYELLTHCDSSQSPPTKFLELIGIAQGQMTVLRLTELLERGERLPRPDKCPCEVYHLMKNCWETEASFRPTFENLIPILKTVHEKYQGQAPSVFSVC
various enzymes (Homo sapiens, UniProt Q9Y2K2), sequence (Q9Y2K2 whole entry): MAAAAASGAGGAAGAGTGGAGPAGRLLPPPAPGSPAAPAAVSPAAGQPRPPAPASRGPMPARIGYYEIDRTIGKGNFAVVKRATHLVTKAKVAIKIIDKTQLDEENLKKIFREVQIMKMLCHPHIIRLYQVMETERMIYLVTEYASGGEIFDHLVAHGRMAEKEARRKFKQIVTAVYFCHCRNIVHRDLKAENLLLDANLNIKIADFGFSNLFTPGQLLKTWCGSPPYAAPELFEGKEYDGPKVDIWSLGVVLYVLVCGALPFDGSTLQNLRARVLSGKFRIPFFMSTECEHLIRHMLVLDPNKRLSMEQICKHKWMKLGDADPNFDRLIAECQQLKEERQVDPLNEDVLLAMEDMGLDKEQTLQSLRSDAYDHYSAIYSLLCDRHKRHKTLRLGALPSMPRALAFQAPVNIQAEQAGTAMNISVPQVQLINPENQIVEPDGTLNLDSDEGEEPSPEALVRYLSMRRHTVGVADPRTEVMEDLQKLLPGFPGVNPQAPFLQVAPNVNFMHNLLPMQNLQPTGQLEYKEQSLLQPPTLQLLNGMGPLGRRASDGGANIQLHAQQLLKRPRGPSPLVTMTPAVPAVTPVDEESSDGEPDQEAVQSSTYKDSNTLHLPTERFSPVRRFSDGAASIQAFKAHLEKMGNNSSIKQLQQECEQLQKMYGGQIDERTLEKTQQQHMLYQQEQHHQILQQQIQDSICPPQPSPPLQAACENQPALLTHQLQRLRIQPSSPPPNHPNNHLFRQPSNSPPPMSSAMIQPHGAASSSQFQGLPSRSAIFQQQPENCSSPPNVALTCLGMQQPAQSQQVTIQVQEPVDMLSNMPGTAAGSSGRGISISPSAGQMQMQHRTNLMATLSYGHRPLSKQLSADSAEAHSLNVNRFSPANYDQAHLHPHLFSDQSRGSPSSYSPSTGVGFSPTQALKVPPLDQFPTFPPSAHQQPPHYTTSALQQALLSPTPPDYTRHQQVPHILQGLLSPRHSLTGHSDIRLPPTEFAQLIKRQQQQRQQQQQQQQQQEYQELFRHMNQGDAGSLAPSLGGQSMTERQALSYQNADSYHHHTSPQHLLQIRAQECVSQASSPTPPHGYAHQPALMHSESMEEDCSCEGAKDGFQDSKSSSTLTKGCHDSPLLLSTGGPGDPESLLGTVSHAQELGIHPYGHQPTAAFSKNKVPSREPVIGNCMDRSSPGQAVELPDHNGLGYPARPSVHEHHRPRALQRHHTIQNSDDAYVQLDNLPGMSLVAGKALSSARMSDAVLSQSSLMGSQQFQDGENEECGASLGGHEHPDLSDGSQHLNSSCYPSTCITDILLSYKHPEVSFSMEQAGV
various enzymes (Homo sapiens, UniProt Q9HCP0), sequence (Q9HCP0 whole entry): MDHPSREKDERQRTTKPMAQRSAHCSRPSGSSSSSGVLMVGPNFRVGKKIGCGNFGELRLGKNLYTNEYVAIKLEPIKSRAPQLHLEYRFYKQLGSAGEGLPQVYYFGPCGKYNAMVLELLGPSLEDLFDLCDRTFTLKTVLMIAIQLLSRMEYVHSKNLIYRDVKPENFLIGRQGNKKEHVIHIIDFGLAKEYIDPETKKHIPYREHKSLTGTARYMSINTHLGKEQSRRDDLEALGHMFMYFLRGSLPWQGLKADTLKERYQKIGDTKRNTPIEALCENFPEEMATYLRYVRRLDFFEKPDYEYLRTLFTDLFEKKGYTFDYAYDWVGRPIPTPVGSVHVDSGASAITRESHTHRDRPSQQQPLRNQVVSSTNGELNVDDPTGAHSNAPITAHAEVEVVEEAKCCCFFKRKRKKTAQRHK
various enzymes (Homo sapiens, UniProt P57059), sequence (P57059 whole entry): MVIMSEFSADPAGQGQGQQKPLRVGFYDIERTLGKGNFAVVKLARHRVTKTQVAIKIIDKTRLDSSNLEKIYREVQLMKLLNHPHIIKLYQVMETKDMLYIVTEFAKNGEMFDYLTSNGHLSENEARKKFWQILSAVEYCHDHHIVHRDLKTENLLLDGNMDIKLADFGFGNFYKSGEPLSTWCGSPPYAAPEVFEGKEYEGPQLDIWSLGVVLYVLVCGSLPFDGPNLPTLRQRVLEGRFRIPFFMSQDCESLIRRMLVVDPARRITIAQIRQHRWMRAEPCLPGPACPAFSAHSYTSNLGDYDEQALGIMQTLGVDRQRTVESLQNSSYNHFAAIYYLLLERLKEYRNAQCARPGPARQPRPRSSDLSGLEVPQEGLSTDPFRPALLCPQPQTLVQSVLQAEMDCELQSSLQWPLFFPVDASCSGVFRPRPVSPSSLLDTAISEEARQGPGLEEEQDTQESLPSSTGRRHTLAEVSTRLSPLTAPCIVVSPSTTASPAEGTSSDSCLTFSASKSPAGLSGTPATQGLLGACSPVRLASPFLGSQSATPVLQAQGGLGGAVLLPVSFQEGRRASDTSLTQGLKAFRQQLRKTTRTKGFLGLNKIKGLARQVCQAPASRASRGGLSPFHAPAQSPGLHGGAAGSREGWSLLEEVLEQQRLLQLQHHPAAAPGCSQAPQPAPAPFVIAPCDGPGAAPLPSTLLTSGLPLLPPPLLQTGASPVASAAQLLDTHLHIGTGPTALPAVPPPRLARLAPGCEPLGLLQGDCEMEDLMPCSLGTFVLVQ
various enzymes (Homo sapiens, UniProt P53779), sequence (P53779 whole entry): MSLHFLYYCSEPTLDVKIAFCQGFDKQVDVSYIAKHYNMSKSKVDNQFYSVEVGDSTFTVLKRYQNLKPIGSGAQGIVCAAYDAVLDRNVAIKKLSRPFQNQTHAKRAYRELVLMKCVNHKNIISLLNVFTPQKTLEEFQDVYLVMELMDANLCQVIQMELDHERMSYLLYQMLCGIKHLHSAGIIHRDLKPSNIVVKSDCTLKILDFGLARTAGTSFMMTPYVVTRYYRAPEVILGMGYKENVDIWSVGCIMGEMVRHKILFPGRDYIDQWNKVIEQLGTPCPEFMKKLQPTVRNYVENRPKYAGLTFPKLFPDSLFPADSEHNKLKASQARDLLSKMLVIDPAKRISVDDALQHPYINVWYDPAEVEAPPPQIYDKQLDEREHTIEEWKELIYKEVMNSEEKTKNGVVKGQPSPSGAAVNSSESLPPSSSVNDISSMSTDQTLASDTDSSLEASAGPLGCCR
various enzymes (Homo sapiens, UniProt P45983), sequence (P45983 whole entry): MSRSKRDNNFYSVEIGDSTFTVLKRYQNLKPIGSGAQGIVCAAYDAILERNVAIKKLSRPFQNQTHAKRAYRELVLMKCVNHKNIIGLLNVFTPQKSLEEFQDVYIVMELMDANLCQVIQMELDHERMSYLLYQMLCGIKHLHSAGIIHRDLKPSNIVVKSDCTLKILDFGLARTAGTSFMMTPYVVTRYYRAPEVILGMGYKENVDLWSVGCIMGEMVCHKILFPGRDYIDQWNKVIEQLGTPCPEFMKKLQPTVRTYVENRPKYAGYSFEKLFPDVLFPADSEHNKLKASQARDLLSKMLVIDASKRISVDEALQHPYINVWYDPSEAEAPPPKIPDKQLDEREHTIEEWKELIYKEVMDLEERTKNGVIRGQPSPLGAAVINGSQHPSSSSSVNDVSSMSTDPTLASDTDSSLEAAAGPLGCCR
various enzymes (Homo sapiens, UniProt Q00526), sequence (Q00526 whole entry): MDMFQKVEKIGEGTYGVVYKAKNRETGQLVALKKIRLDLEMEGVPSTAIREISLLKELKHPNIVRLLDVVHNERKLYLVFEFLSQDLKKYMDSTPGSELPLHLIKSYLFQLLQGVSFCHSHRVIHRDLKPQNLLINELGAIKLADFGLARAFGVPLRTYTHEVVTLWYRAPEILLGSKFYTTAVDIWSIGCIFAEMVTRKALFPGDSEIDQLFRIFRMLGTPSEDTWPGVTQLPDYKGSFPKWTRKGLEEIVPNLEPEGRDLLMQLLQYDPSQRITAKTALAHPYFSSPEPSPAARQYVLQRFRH

Consider `CN1Cc2nn(C)cc2-c2cnc3[nH]cc(c3c2)-c2cnn(c2)CCCC1=O` [Compound 41, (Z)-31,5-dimethyl-11H,21H,31H-5-aza-2(3,5)-pyrrolo[2,3-b]pyridina-1(4,1),3(4,3)-dipyrazolacyclononaphan-6-one], for which the Ambit profiling on various enzymes [1] (TYK2(JH1domain-catalytic)) worked out at 2.3; on various enzymes [1] (TYK2(JH2domain-pseudokinase)), 100; on various enzymes [2] (MET(M1250T), 1 uM), 20; on various enzymes [3] (MET(Y12350), 1 uM), 44; at various enzymes [4] it was 50; at various enzymes [5] it was 100. Also, the Ambit profiling on various enzymes [6] was 0.75; on various enzymes [7], 39; on various enzymes [8], 55; at various enzymes [9], 89; at various enzymes [10] (EGFR(L861Q), 1 uM), 100; on various enzymes [11], 84. In addition, the Ambit profiling on various enzymes [12] is 28; at various enzymes [13] it was 84; at various enzymes [14], 0.15; on various enzymes [15] (EGFR(L858R, T790M), 1 uM), 14; at various enzymes [16], 0.1; on various enzymes [17] (EGFR(G719C), 1 uM) it was 100.
As to `CN1Cc2nn(C)c(C#N)c2-c2cnc3[nH]cc(c3c2)-c2cn(nc2C(F)(F)F)CCCC1=O` [Compound 48, (Z)-31,5-dimethyl-6-oxo-13-(trifluoromethyl)-11H,21H,31H-5-aza-2(3,5)-pyrrolo[2,3-b]pyridina-1(4,1),3(4,3)-dipyrazolacyclononaphane-35-carbonitrile], the Ambit profiling on various enzymes [1] (TYK2(JH1domain-catalytic)) turned out to be 84; at various enzymes [1] (TYK2(JH2domain-pseudokinase)), 100; on various enzymes [2], 75; on various enzymes [3], 51; on various enzymes [4], 100; at various enzymes [5], 93. Also, the Ambit profiling came out at 14 on various enzymes [6]; 86 on various enzymes [7]; 91 on various enzymes [8]; 100 on various enzymes [9]; 59 on various enzymes [10]; 100 at various enzymes [11]. The Ambit profiling at various enzymes [12] is 99; at various enzymes [13] it was 59; on various enzymes [14], 21; at various enzymes [15] it was 50; on various enzymes [16], 20; at various enzymes [17], 86.
